Test results from patent US10174006B2, “Topical aqueous ophthalmic compositions containing a 1H-indole-1-carboxamide derivative and use thereof for treatment of ophthalmic disease” (Novartis AG, priority 2013, dated 2019).
In brackets after ≈: the same amount, converted by molar mass. Like-named read-outs stand apart in the source and are kept apart here.

Assays:
[1] = Solubility in 5% HP-β-CD at pH 4.5 versus pH 7 (Table II); type: physicochemical; conditions: for Solubility Enhancement (fold): compared to intrinsic solubility at pH 7
Text: Thus, depending upon the type of composition, the desired pH of the composition may be different. For compositions that include the cyclodextrin derivative, particularly the β-cyclodextrin derivative, γ-cyclodextrin derivative or combination thereof, and even more typically hydroxypropy-β-cyclodextrin, hydroxypropyl-γ-cyclodextrin or a combination thereof, the pH is preferably relatively low. The relatively low pH is typically at least 3.0, more typically at least 4.0 and even more typically at least 4.3, but is typically no greater than 5.5, more typically no greater than 5.0 and even more typically no greater than 4.7. It is also preferable that the pH of the composition be at least 4.0 but no greater than 5.0 and more preferably at least 4.3 but no greater than 4.7. Such compositions will typically be solutions in which the 1H-indole-1-carboxamide is dissolved.

[2] = Zeta potential of LHA510 particles with additives; type: physicochemical; conditions: dispersant deionized water
Procedure: It was determined that NaCMC unexpectedly provide the 1H-indole-1-carboxamide with desired Zeta Potential. In particular, NaCMC creates repulsive forces between the particles of 1H-indole-1-carboxamide.

[3] = Ocular tissue and plasma PK after single unilateral topical dose; type: in vivo, pigmented NZW×NZR rabbits; conditions: pigmented NZW×NZR, rabbit, single unilateral 30 μL dose at 0.5%, 1% and 2%
Procedure: A single unilateral dose (30 μL) of a preferred ophthalmic suspension composition (i.e., suspension C-2 in Example 3 below) of the present invention was dosed onto the right (OD) eye of pigmented NZW×NZR rabbits at 0.5%, 1%, and 2% N-(1-methyl-5-(trifluoromethyl)-1H-pyrazol-3-yl)-5-((6-((methylamino)methyl)pyrimidin-4-yl)oxy)-1H-indole-1-carboxamide.

[4] = Solubility in 8% HP-γ-CD in acetate buffer with different pH adjustment agents (Table III); type: physicochemical
[5] = Ocular tissue and plasma PK after repeated t.i.d. monocular dosing for 7 days; type: in vivo, pigmented rabbits; conditions: 2% t.i.d. 7 days
Procedure: In the contralateral undosed eyes of the 2% t.i.d treatment group, N-(1-methyl-5-(trifluoromethyl)-1H-pyrazol-3-yl)-5-((6-((methylamino)methyl)pyrimidin-4-yl)oxy)-1H-indole-1-carboxamide exposure was lower with the AUClast values of 1260 ng*h/g in cornea, 293000 ng*h/g in RPE/choroid and 3640 ng*h/g in retina.
PK parameters of 1H-indole-1-carboxamide in ocular tissues and plasma following repeated t.i.d. monocular OD dosing for 7 days of 2% N-(1-methyl-5-(trifluoromethyl)-1H-pyrazol-3-yl)-5-((6-((methylamino)methyl)pyrimidin-4-yl)oxy)-1H-indole-1-carboxamide formulation in pigmented rabbits employing suspension C-2 in Table B below.

[6] = Equilibrium solubility in HPβCD or HPγCD in acetate (first Table I); type: physicochemical; conditions: for solubility at 3 day: thermodynamic from solid, read-out: 1H-indole-1-carboxamide Solubility
[7] = as above; type: physicochemical; conditions: for solubility at 3 day: thermodynamic from solid, read-out: 1H-indole-1-carboxamide Solubility; remark: listed apart in the source
Text: Hydroxypropyl-γ-cyclodextrin is preferred for dissolution of the 1H-indole-1-carboxamide.

[8] = NZW×NZR (pigmented), rabbit, RPE/choroid of the dosed eye (OD), topical or ocular, 2 % formulation, RPE/Choroid OD (dosed eye)
[9] = NZW×NZR (pigmented), rabbit, cornea of the dosed (OD) eye, topical or ocular, Cornea OD (dosed eye)
[10] = NZW×NZR (pigmented), rabbit, cornea of the undosed (OS) eye, topical or ocular, Cornea OS (undosed eye)
[11] = pigmented NZW×NZR, rabbit, RPE/choroid of the undosed (OS) eye, topical or ocular, RPE/Choroid OS (undosed eye)
[12] = pigmented NZW×NZR, rabbit, retina of the dosed (OD) eye, topical or ocular, Retina OD (dosed eye)
[13] = pigmented NZW×NZR, rabbit, retina of the undosed (OS) eye, topical or ocular, Retina OS (undosed eye)

solubility ([1]; 5% HP-β-CD in acetate buffer, aqueous with cosolvent or surfactant or cyclodextrin, 5% HP-β-CD/Acetate buffer/pH 4.5, final pH 4.64, read-out: 1H-indole-1-carboxamide Solubility): 11.7 mg/mL | solubility ([1]; 5% HP-β-CD in phosphate buffer, aqueous with cosolvent or surfactant or cyclodextrin, 5% HP-β-CD/Phosphate buffer/pH 7, final pH 7.06, read-out: 1H-indole-1-carboxamide Solubility): 1.01 mg/mL | Solubility Enhancement (fold) ([1]; 5% HP-β-CD/Acetate buffer/pH 4.5): 1667 fold | Solubility Enhancement (fold) ([1]; 5% HP-β-CD/Phosphate buffer/pH 7): 144 fold | solubility ([1]; pH 7, aqueous buffer, read-out: intrinsic solubility): ~0.007 mg/mL | Zeta Potential ([2]; Additive: 10 mM NaCl): 0.6 mV | Zeta Potential ([2]; Additive: 0.1% Pluronic F127): −1.09 mV | Zeta Potential ([2]; Additive: 0.5% Sodium CMC 7LF PH): −40.3 mV | Zeta Potential ([2]; Additive: 1% Pluronic F127): −0.962 mV | Zeta Potential ([2]; Additive: 1% Polyvinyl phosphoric acid (PVPA)): −0.835 mV | Zeta Potential ([2]; Additive: 1% Povidone (PVP 29/32)): 0 mV | Zeta Potential ([2]; Additive: 1% Sodium CMC 7LF PH): −47.8 mV | Zeta Potential ([2]; Additive: 1% Vitamin E TPGS): −1.77 mV | Zeta Potential ([2]; Additive: None): −2.58 mV | Tmax ([3]; RPE/choroid): 18 to 48 h | Tmax ([3]; all ocular tissues and plasma except RPE/choroid): 0.5 to 3 h | solubility ([4]; pH 4.732, aqueous with cosolvent or surfactant or cyclodextrin, pH adjustment agent 1N Glucoronic acid, final pH 4.732, read-out: 1H-indole-1-carboxamide Solubility): 36 mg/mL (≈ 80.8 mM) | solubility ([4]; pH 4.872, aqueous with cosolvent or surfactant or cyclodextrin, pH adjustment agent 1N Citric acid, final pH 4.872, read-out: 1H-indole-1-carboxamide Solubility): 6.88 mg/mL (≈ 15.4 mM) | solubility ([4]; pH 4.887, aqueous with cosolvent or surfactant or cyclodextrin, pH adjustment agent 1N Acetic acid, final pH 4.887, read-out: 1H-indole-1-carboxamide Solubility): 30.3 mg/mL (≈ 68 mM) | solubility ([4]; pH 4.887, aqueous with cosolvent or surfactant or cyclodextrin, pH adjustment agent 1N Hydrochloric acid, final pH 4.887, read-out: 1H-indole-1-carboxamide Solubility): 15.5 mg/mL (≈ 34.7 mM) | solubility ([4]; pH 4.902, aqueous with cosolvent or surfactant or cyclodextrin, pH adjustment agent 1N Methanesulfonic acid, final pH 4.902, read-out: 1H-indole-1-carboxamide Solubility): 32.6 mg/mL (≈ 73.1 mM) | solubility ([4]; pH 4.955, aqueous with cosolvent or surfactant or cyclodextrin, pH adjustment agent 1N Lactic acid, final pH 4.955, read-out: 1H-indole-1-carboxamide Solubility): 33 mg/mL (≈ 74.2 mM) | solubility ([4]; pH 4.973, aqueous with cosolvent or surfactant or cyclodextrin, pH adjustment agent 1N Sulfuric acid, final pH 4.973, read-out: 1H-indole-1-carboxamide Solubility): 35.6 mg/mL (≈ 79.9 mM) | solubility ([4]; pH 5.014, aqueous with cosolvent or surfactant or cyclodextrin, pH adjustment agent 1N Phosphoric acid, final pH 5.014, read-out: 1H-indole-1-carboxamide Solubility): 25.4 mg/mL (≈ 57.1 mM) | plasma accumulation [5]: no evidence of plasma accumulation | AUClast Mean ([5]; Cornea OD (dosed eye), Tlast = 96 h): 317000 ng·h/g | AUClast Mean ([5]; Cornea OS (undosed eye), Tlast = 96 h): 1260 ng·h/g | Cmax [5, 8]: 6410 ng/g | Tmax [5, 8]: 0.5 h | Cmax [5, 9]: 32300 ng/g | Tmax [5, 9]: 1 h | Cmax [5, 10]: 47.5 ng/g | Tmax [5, 10]: 0 h | Tmax ([5]; NZW×NZR (pigmented), rabbit, topical or ocular, Plasma): 0.5 h | Cmax ([5]; NZW×NZR (pigmented), rabbit, topical, Plasma): 1.85 ng/mL | AUC(0-t) ([5]; NZW×NZR (pigmented), rabbit, topical, Plasma, Tlast = 96 h, read-out: AUClast Mean): 5.12 ng·h/mL | AUClast Mean ([5]; RPE/Choroid OD (dosed eye), Tlast = 96 h): 453000 ng·h/g | AUClast Mean ([5]; RPE/Choroid OS (undosed eye), Tlast = 96 h): 293000 ng·h/g | local penetration in the dosed eyes as share of the total AUClast ([5]; RPE/choroid): 37.1% | AUClast Mean ([5]; Retina OD (dosed eye), Tlast = 96 h): 8400 ng·h/g | AUClast Mean ([5]; Retina OS (undosed eye), Tlast = 96 h): 3640 ng·h/g | Cmax [5, 11]: 3950 ng/g | Tmax [5, 11]: 18 h | Cmax [5, 12]: 122 ng/g | Tmax [5, 12]: 18 h | Cmax [5, 13]: 67.2 ng/g | Tmax [5, 13]: 18 h | local penetration in the dosed eyes as share of the total AUClast ([5]; retina): 56.7% | 1H-indole-1-carboxamide Solubility ([6]; 1% HPβCD in Acetate, pH 4.584, equilibrium solubility at day 3): 7.28 mg/mL | solubility at 3 day ([6]; 1% HPβCD in acetate, pH 4.584, aqueous with cosolvent or surfactant or cyclodextrin, 1% HPβCD in Acetate, pH 4.584, equilibrium solubility at day 3): 7.5 mg/mL (≈ 16.8 mM) | solubility at 3 day ([6]; 1% HPγCD in acetate, pH 4.607, aqueous with cosolvent or surfactant or cyclodextrin, 1% HPγCD in Acetate, pH 4.607, equilibrium solubility at day 3): 9.28 mg/mL (≈ 20.8 mM) | 1H-indole-1-carboxamide Solubility ([6]; 2.5% HPβCD in Acetate, pH 4.606, equilibrium solubility at day 3): 12.45 mg/mL | solubility at 3 day ([6]; 2.5% HPβCD in acetate, pH 4.606, aqueous with cosolvent or surfactant or cyclodextrin, 2.5% HPβCD in Acetate, pH 4.606, equilibrium solubility at day 3): 12.5 mg/mL (≈ 28 mM) | 1H-indole-1-carboxamide Solubility ([6]; 5% HPβCD in Acetate, pH 4.670, equilibrium solubility at day 3): 15.93 mg/mL | solubility at 3 day ([6]; 5% HPβCD in acetate, pH 4.67, aqueous with cosolvent or surfactant or cyclodextrin, 5% HPβCD in Acetate, pH 4.670, equilibrium solubility at day 3): 19.6 mg/mL (≈ 44 mM) | 1H-indole-1-carboxamide Solubility ([6]; 8% HPβCD in Acetate, pH 4.530, equilibrium solubility at day 3): 25.67 mg/mL | solubility at 3 day ([6]; 8% HPβCD in acetate, pH 4.53, aqueous with cosolvent or surfactant or cyclodextrin, 8% HPβCD in Acetate, pH 4.530, equilibrium solubility at day 3): 25.7 mg/mL (≈ 57.6 mM) | solubility at 3 day ([6]; 8% HPγCD in acetate, pH 4.58, aqueous with cosolvent or surfactant or cyclodextrin, 8% HPγCD in Acetate, pH 4.580, equilibrium solubility at day 3): 30.7 mg/mL (≈ 68.8 mM) | 1H-indole-1-carboxamide Solubility ([6]; 10% HPβCD in Acetate, pH 4.610, equilibrium solubility at day 3): 30.57 mg/mL | solubility at 3 day ([6]; 10% HPβCD in acetate, pH 4.61, aqueous with cosolvent or surfactant or cyclodextrin, 10% HPβCD in Acetate, pH 4.610, equilibrium solubility at day 3): 30.6 mg/mL (≈ 68.7 mM) | 1H-indole-1-carboxamide Solubility ([6]; 10% HPγCD in Acetate, pH 4.668, equilibrium solubility at day 3): 34.56 mg/mL | 1H-indole-1-carboxamide Solubility ([7]; 1% HPγCD in Acetate, pH 4.607, equilibrium solubility at day 3): 9.09 mg/mL | 1H-indole-1-carboxamide Solubility ([7]; 2.5% HPγCD in Acetate, pH 4.555, equilibrium solubility at day 3): 14.69 mg/mL | solubility at 3 day ([7]; 2.5% HPγCD in acetate, pH 4.555, aqueous with cosolvent or surfactant or cyclodextrin, 2.5% HPγCD in Acetate, pH 4.555, equilibrium solubility at day 3): 14.7 mg/mL (≈ 33.1 mM) | 1H-indole-1-carboxamide Solubility ([7]; 5% HPγCD in Acetate, pH 4.505, equilibrium solubility at day 3): 22.34 mg/mL | solubility at 3 day ([7]; 5% HPγCD in acetate, pH 4.505, aqueous with cosolvent or surfactant or cyclodextrin, 5% HPγCD in Acetate, pH 4.505, equilibrium solubility at day 3): 21.9 mg/mL (≈ 49.1 mM) | 1H-indole-1-carboxamide Solubility ([7]; 8% HPγCD in Acetate, pH 4.580, equilibrium solubility at day 3): 30.60 mg/mL | solubility at 3 day ([7]; 10% HPγCD in acetate, pH 4.668, aqueous with cosolvent or surfactant or cyclodextrin, 10% HPγCD in Acetate, pH 4.668, equilibrium solubility at day 3): 34.3 mg/mL (≈ 77 mM)
Compound: CNCc1cc(Oc2ccc3c(ccn3C(=O)Nc3cc(C(F)(F)F)n(C)n3)c2)ncn1 [LHA510, N-(1-methyl-5-(trifluoromethyl)-1H-pyrazol-3-yl)-5-((6-((methylamino)methyl)pyrimidin-4-yl)oxy)-1H-indole-1-carboxamide]
